Measurements from article PMC7044277 (Nature Communications, 2020).
Values joined by “and” are separate entries in the source; they are usually repeats but may differ in a detail not shown here. Identical values can stand only once.

Experiments:
[1] = molecular target: DRD2 (D2 long receptor) wild-type (Homo sapiens, UniProt P14416); test: Radioligand competition binding, [3H]-N-methylspiperone, HEK293T membranes
DRD3 wild-type = DRD3 wild-type (Homo sapiens, UniProt P35462); test: Radioligand competition binding, [3H]-N-methylspiperone
[2] = molecular target: T1, DRD4 (D4.4 variant) wild-type (Homo sapiens, UniProt P21917); test: as above
T1 sequence (P21917 1-419): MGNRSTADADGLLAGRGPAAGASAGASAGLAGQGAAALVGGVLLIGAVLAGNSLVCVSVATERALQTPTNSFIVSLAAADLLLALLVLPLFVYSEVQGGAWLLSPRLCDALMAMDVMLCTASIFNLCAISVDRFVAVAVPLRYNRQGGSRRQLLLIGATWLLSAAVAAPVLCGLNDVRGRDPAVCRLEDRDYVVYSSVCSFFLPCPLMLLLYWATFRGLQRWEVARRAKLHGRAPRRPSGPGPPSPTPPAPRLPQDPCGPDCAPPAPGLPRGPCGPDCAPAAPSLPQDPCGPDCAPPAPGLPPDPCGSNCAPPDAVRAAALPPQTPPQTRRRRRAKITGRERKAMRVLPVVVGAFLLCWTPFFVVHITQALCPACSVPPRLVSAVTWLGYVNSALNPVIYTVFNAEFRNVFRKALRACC

DRD2 (D2 long receptor) [3] = molecular target: T2, DRD2 (D2 long receptor) (Homo sapiens, UniProt P14416); test: Gαi/o-mediated cAMP inhibition (GloSensor split-luciferase cAMP reporter), HEK293T; assay type: cell-based; details: for Response, Fig_S11b dose-response: individual replicates;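 for all read-outs here: compounds applied 15 min at room temperature, then luciferin plus 400 nM isoproterenol to raise cAMP through endogenous β2-adrenergic receptors, luminescence read 15 min later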
DRD4 (D4.4 variant) [4] = molecular target: T3, DRD4 (D4.4 variant) (Homo sapiens, UniProt P21917); test: Gαi/o-mediated cAMP inhibition (GloSensor); assay type: cell-based; details: DRD4; agonist, cAMP inhibition; read-out: EC50 ± SEM
T3 sequence (P21917 1-419): T1 sequence (P21917 1-419)

DRD2 (D2 long receptor) [5] = molecular target: T2, DRD2 (D2 long receptor); test: β-arrestin2 recruitment (Tango), HTLA cells; assay type: cell-based; details: for Response, Fig_S11c dose-response: individual replicates
DRD3 = DRD3 (Homo sapiens, UniProt P35462); test: β-arrestin2 recruitment (Tango); assay type: cell-based; details: DRD3, Tango
DRD4 (D4.4 variant) [6] = molecular target: T3, DRD4 (D4.4 variant); test: β-arrestin2 recruitment (Tango); assay type: cell-based; details: DRD4; Tango; read-out: EC50 ± SEM
DRD2 F1103.28A = DRD2 F1103.28A (Homo sapiens, UniProt P14416, F110A); assay type: binding; parameters: expressed in transfected cells; host or cells: HEK293T (ATCC CRL-11268); details: DRD2 F1103.28A
DRD2 F1103.28A, sequence (P14416 whole entry F110A): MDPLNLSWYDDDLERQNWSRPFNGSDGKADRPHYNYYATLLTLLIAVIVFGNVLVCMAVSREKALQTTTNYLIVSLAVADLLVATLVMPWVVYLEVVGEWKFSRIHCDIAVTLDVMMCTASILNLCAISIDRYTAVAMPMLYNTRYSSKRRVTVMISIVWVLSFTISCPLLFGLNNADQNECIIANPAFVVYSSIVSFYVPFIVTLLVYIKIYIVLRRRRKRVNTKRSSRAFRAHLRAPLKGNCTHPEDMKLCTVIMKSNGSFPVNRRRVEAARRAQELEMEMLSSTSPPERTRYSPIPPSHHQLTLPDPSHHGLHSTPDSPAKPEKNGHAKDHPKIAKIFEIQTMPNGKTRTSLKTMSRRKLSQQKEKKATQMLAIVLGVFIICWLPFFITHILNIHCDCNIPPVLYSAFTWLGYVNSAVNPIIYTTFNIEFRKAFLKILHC

T2 sequence (P14416 whole entry): as the sequence (P14416 whole entry F110A) above, with A110F counted along it
DRD3 wild-type, sequence (P35462 whole entry): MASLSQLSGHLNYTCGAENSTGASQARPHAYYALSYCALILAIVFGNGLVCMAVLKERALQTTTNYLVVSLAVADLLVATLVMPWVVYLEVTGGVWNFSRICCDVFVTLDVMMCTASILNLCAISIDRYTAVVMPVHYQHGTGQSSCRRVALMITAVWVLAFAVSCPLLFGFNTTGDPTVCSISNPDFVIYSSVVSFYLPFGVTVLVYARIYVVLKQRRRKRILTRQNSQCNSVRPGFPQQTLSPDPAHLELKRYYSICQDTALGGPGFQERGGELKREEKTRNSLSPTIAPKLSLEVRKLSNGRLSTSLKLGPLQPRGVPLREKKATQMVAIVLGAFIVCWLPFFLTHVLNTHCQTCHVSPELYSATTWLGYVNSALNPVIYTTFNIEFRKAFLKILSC
DRD3, sequence (P35462 whole entry): as above
DRD2 (D2 long receptor) wild-type, sequence (P14416 whole entry): as the sequence (P14416 whole entry F110A) above, with A110F counted along it

Ki ([1]; DRD2, [3H]-methylspiperone (0.8-1.0 nM), read-out: Ki): 2510 nM | pKi ± SEM ([1]; DRD2 wild-type): 5.60±0.27 | Ki (DRD3 wild-type; DRD3, [3H]-methylspiperone (0.8-1.0 nM), read-out: Ki): 390 nM | pKi ± SEM (DRD3 wild-type; DRD3 wild-type): 6.41±0.20 | Ki ([2]; DRD4, [3H]-methylspiperone (0.8-1.0 nM), read-out: Ki): 6.6 µM | pKi ± SEM ([2]; DRD4 wild-type): 5.18±0.16 | EC50 (DRD2 (D2 long receptor) [3]; DRD2, agonist, Gαi/o-mediated cAMP inhibition, read-out: EC50 ± SEM): 0.51 ± 0.22 nM | Emax relative to quinpirole response (DRD2 (D2 long receptor) [3]; DRD2, cAMP inhibition): 92.80% | Response, Fig_S11b dose-response (DRD2 (D2 long receptor) [3]; Log[Drug] -12): 10.388 and -0.6478 and -16.2541 | EC50 (DRD4 (D4.4 variant) [4]): > 10 µM | Emax relative to quinpirole response (DRD2 (D2 long receptor) [5]; DRD2, Tango): 96.83% | EC50 (DRD2 (D2 long receptor) [5]; DRD2, β-arrestin2 recruitment (Tango), read-out: EC50 ± SEM): 48 ± 17.4 nM | Response, Fig_S11c dose-response (DRD2 (D2 long receptor) [5]; Log[Drug] -6.52): 78.0067 and 72.6033 and 81.7269 | Emax relative to quinpirole response (DRD3): 53.92% | EC50 (DRD3; read-out: EC50 ± SEM): 2070 ± 524 nM | EC50 (DRD4 (D4.4 variant) [6]): > 10 µM | pKi ± SEM (DRD2 F1103.28A): 6.17±0.24 | Ki (DRD2 F1103.28A; read-out: Ki): 680 nM
Structure (SMILES): CCCOc1cccc2cc(C(C)NCC3(O)CCCCC3)oc12.Cl (centres unmarked) [O5LE6]
Response, Fig_S11b dose-response (DRD2 (D2 long receptor) [3]; Log[Drug] -5): 93.7387 and 96.4518 and 83.3289 and 97.2506 and 100.948 and 91.5558 and 103.412 and 92.2091 and 101.183 | Response, Fig_S11b dose-response (DRD2 (D2 long receptor) [3]; Log[Drug] -5.52): 82.1384 and 82.3875 and 75.0785 and 87.4334 and 93.0858 and 74.7688 and 89.9797 and 94.4943 and 85.5765 | Response, Fig_S11b dose-response (DRD2 (D2 long receptor) [3]; Log[Drug] -6): 92.7696 and 95.5936 and 84.8792 and 92.7883 and 90.7908 and 90.8333 and 98.9533 and 107.927 and 83.4028 | Response, Fig_S11b dose-response (DRD2 (D2 long receptor) [3]; Log[Drug] -6.52): 97.1163 and 91.7176 and 84.6854 and 100.523 and 99.588 and 84.586 and 94.4943 (2×) and 87.9175 | Response, Fig_S11b dose-response (DRD2 (D2 long receptor) [3]; Log[Drug] -7): 88.7275 and 92.9358 and 71.1749 and 92.7033 and 88.1559 and 76.2138 and 94.4943 and 90.0354 and 94.6058 | Response, Fig_S11b dose-response (DRD2 (D2 long receptor) [3]; Log[Drug] -7.52): 77.9025 and 80.4772 and 73.7773 and 81.6111 and 84.246 and 79.2737 and 92.3206 (2×) and 90.0912 | Response, Fig_S11b dose-response (DRD2 (D2 long receptor) [3]; Log[Drug] -8): 77.3211 and 65.3055 and 54.0098 and 88.3259 and 67.3316 and 76.7238 and 92.3764 and 94.6058 and 90.1469 | Response, Fig_S11b dose-response (DRD2 (D2 long receptor) [3]; Log[Drug] -8.52): 58.6056 and 55.6709 and 54.785 and 76.7663 and 68.819 and 71.6664 and 72.5342 and 65.79 and 68.0195 | Response, Fig_S11b dose-response (DRD2 (D2 long receptor) [3]; Log[Drug] -9): 60.5713 and 46.8115 and 46.2578 and 72.3889 and 53.7745 and 57.9819 and 43.7184 and 46.0036 and 36.9186 | Response, Fig_S11b dose-response (DRD2 (D2 long receptor) [3]; Log[Drug] -11): 6.418 and 5.781 and 25.106 and 20.5831 and 9.873 and -2.9186 and 1.972 and -15.9196 and 1.6931 | Response, Fig_S11b dose-response (DRD2 (D2 long receptor) [3]; Log[Drug] -11.52): -0.171 and -1.0016 and 12.1684 and 15.5258 and 10.8339 and -7.0018 and -2.6544 | response, Fig_S11c dose-response source data (DRD2 (D2 long receptor) [5]; Fig_S11c, Log[Drug] -5, replicate values): 92.0049 and 94.8711 and 101.869 and 86.3956 and 96.7296 and 94.1831 and 124.768 and 128.356 | Response, Fig_S11c dose-response (DRD2 (D2 long receptor) [5]; Log[Drug] -7): 59.3634 and 78.1496 and 92.3943 and 62.4498 and 64.4647 and 75.7752 and 66.3683 and 83.054 and 11.3874 | Response, Fig_S11c dose-response (DRD2 (D2 long receptor) [5]; Log[Drug] -7.52): 39.0633 and 46.4823 and 48.2261 and 47.7888 and 46.5069 and 50.1562 and 52.6803 and 36.834 and 2.983 | Response, Fig_S11c dose-response (DRD2 (D2 long receptor) [5]; Log[Drug] -8): 13.2042 and 18.1697 and 22.7864 and 24.8922 and 32.8443 and 29.0019 and 29.5472 and 40.4681 and 3.216 | Response, Fig_S11c dose-response (DRD2 (D2 long receptor) [5]; Log[Drug] -8.52): 6.043 and 5.645 and 6.29 and 8.275 and 9.219 and 10.0453 and 7.5026 and 13.6733 | Response, Fig_S11c dose-response (DRD2 (D2 long receptor) [5]; Log[Drug] -9): 3.483 and 3.9317 and 4.775 and 3.72 and 3.708 and 4.581 and 2.217 and 12.7509 and 0.7411 | Response, Fig_S11c dose-response (DRD2 (D2 long receptor) [5]; Log[Drug] -9.52): 2.993 and 3.331 and 4.098 and 2.754 and 3.737 and 4.1942 and 7.991 and 10.1775 and 1.675 | Response, Fig_S11c dose-response (DRD2 (D2 long receptor) [5]; Log[Drug] -10): 3.128 and 3.469 and 3.576 and 3.051 and 3 and 3.543 and 4.136 and 3.1859 and 0.7745 | Response, Fig_S11c dose-response (DRD2 (D2 long receptor) [5]; Log[Drug] -10.52): 3.13 and 3.099 and 3.417 and 2.557 and 2.786 and 3.353 and 2.31 and 1.747 and 0.1927 | Response, Fig_S11c dose-response (DRD2 (D2 long receptor) [5]; Log[Drug] -11): 2.735 and 2.569 and 3.311 and 2.422 and 2.816 and 3.208 and 1.747 and 3.739 and 0.4891 | Response, Fig_S11c dose-response (DRD2 (D2 long receptor) [5]; Log[Drug] -11.52): 2.576 and 2.946 and 3.152 and 2.7257 and 2.6254 and 2.896 and 3.227 and 4.708 and 2.264 | Response, Fig_S11c dose-response (DRD2 (D2 long receptor) [5]; Log[Drug] -12): 2.314 (2×) and 2.658 and 2.679 and 2.551 and 2.481 and 2.532 and 1.9407
